Laboratory results from PubChem BioAssay AID330 (DTP/NCI, 2004).
Several values for one entry are separate records, joined by “and”; a condition that tells them apart may be missing. Equal values may be shown once. Toxic doses and inconclusive results are not listed. Rule for the calls: active = survival T/C of 150% or more; inactive = T/C below 125% in these data.

Test system: P388 leukemia ip, CD2F1 mice, survival T/C
Assay: NCI In Vivo Anticancer Drug Screen. Data for tumor model P388 Leukemia (intraperitoneal) in CD2F1 (CDF1) mice
Conditions: endpoint: median survival time, higher = longer survival
Method in brief: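 Mice carrying the transplanted tumor received test compound or vehicle. Survival was recorded in each group, and the value is the treated-group measurement divided by that of the vehicle-treated control group.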

[1] = dose: 12.5 mg/kg/injection, schedule: Q01DX009 (ip), vehicle: water
[2] = dose: 25.0 mg/kg/injection, schedule: Q01DX009 (ip), vehicle: water
[3] = dose: 50.0 mg/kg/injection, schedule: Q01DX005 (ip), vehicle: Klucel (hydroxypropylcellulose) (HPC)
[4] = dose: 100.0 mg/kg/injection, schedule: Q01DX005 (ip), vehicle: Klucel (hydroxypropylcellulose) (HPC)
[5] = dose: 200.0 mg/kg/injection, schedule: Q01DX005 (ip), vehicle: Klucel (hydroxypropylcellulose) (HPC)
[6] = dose: 50.0 mg/kg/injection, schedule: Q01DX005 (ip), vehicle: saline with Tween-80
[7] = dose: 100.0 mg/kg/injection, schedule: Q01DX005 (ip), vehicle: saline with Tween-80
[8] = dose: 200.0 mg/kg/injection, schedule: Q01DX005 (ip), vehicle: saline with Tween-80
[9] = dose: 12.5 mg/kg/injection, schedule: Q01DX009 (ip), vehicle: saline with Tween-80
[10] = dose: 25.0 mg/kg/injection, schedule: Q01DX009 (ip), vehicle: saline with Tween-80
[11] = dose: 50.0 mg/kg/injection, schedule: Q01DX009 (ip), vehicle: saline with Tween-80
[12] = dose: 100.0 mg/kg/injection, schedule: Q04DX002 (ip), vehicle: saline with Tween-80
[13] = dose: 200.0 mg/kg/injection, schedule: Q04DX002 (ip), vehicle: saline with Tween-80
[14] = dose: 400.0 mg/kg/injection, schedule: Q04DX002 (ip), vehicle: saline with Tween-80
[15] = dose: 50.0 mg/kg/injection, schedule: Q01DX001 (ip), vehicle: Klucel (hydroxypropylcellulose) (HPC)
[16] = dose: 100.0 mg/kg/injection, schedule: Q01DX001 (ip), vehicle: Klucel (hydroxypropylcellulose) (HPC)

Measured: T/C

C=C1C(=O)O[C@H]2[C@@H]3O[C@@H]3C[C@@H]12
inactive: dose: 1.56 mg/kg/injection, schedule: Q01DX009 (ip), vehicle: water 105 % of control | dose: 3.13 mg/kg/injection, schedule: Q01DX009 (ip), vehicle: water 97 % of control | dose: 6.25 mg/kg/injection, schedule: Q01DX009 (ip), vehicle: water 99 % of control | [1] 100 % of control | [2] 109 % of control

CCOC(=O)C(CCC[n+]1ccc2ccccc2c1)C(=O)OCC
inactive: [3] 96 % of control | [4] 98 % of control | [5] 98 % of control

COc1ccc(CCN(CCC#N)C(=O)C(Cl)Cl)cc1
inactive: [3] 97 % of control | [4] 97 % of control | [5] 99 % of control

CN1CCC2CC1Cc1ccc(NS(C)(=O)=O)cc12 (stereo unspecified)
inactive: [6] 98 % of control | [7] 100 % of control | [8] 91 % of control

O=C1OC2(CCCCC2)OC(=O)C1=C/C=C/c1ccc([N+](=O)[O-])o1
inactive: dose: 3.13 mg/kg/injection, schedule: Q01DX009 (ip), vehicle: saline with Tween-80 93 % of control | dose: 6.25 mg/kg/injection, schedule: Q01DX009 (ip), vehicle: saline with Tween-80 88 % of control | [9] 102 % of control | [10] 102 % of control | [11] 100 % of control

CC(=O)OCC12CCC(C)=CC1OC1C(=O)CC2(C)C12CO2 (stereo unspecified)
inactive: dose: 0.5 mg/kg/injection, schedule: Q01DX009 (ip), vehicle: saline 100 % of control | dose: 1.0 mg/kg/injection, schedule: Q01DX009 (ip), vehicle: saline 101 % of control | dose: 2.0 mg/kg/injection, schedule: Q01DX009 (ip), vehicle: saline 94 % of control | dose: 4.0 mg/kg/injection, schedule: Q01DX009 (ip), vehicle: saline 110 % of control

CCCC1CCCCN1Cc1ccccc1 (stereo unspecified)
inactive: [6] 107 % of control | [7] 104 % of control

O=C1C(=Cc2ccccc2)C(=O)c2ccccc21
inactive: dose: 25.0 mg/kg/injection, schedule: Q04DX002 (ip), vehicle: saline with Tween-80 108 % of control | dose: 50.0 mg/kg/injection, schedule: Q04DX002 (ip), vehicle: saline with Tween-80 109 % of control | [12] 109 % of control | [13] 107 % of control | [14] 112 % of control

COc1ccc(CCNC2=C(/C=C\C(=O)O)C(=O)CC2)cc1OC
inactive: dose: 25.0 mg/kg/injection, schedule: Q01DX001 (ip), vehicle: Klucel (hydroxypropylcellulose) (HPC) 95 % of control | [15] 100 % of control | [16] 87 % of control and 92 % of control

O=C1C2CC3OC3CC2C(=O)N1CN1C(=O)C2CC3OC3CC2C1=O (stereo unspecified)
inactive: [3] 106 % of control | [4] 91 % of control | [5] 89 % of control

COCC1CCOC(C(C)C)O1 (stereo unspecified)
inactive: dose: 60.0 mg/kg/injection, schedule: Q01DX005 (ip), vehicle: saline 101 % of control | dose: 120.0 mg/kg/injection, schedule: Q01DX005 (ip), vehicle: saline 100 % of control | dose: 240.0 mg/kg/injection, schedule: Q01DX005 (ip), vehicle: saline 100 % of control

COc1cccc(N=C(C2=C(O)c3ccccc3C2=O)c2ccccc2)c1
inactive: [12] 101 % of control | [13] 97 % of control | [14] 100 % of control

CCOC(=O)C12C(C(=O)OC)=CC(=O)NC1(OCC)OC(C)C2C (stereo unspecified)
inactive: [15] 94 % of control | [16] 89 % of control | dose: 200.0 mg/kg/injection, schedule: Q01DX001 (ip), vehicle: Klucel (hydroxypropylcellulose) (HPC) 89 % of control

Cc1[nH]c2ccccc2c1-c1cc(-c2cc(-c3c(C)[nH]c4ccccc34)nc(N)n2)nc(N)n1
inactive: dose: 60.0 mg/kg/injection, schedule: Q01DX005 (ip), vehicle: Klucel (hydroxypropylcellulose) (HPC) 97 % of control | dose: 120.0 mg/kg/injection, schedule: Q01DX005 (ip), vehicle: Klucel (hydroxypropylcellulose) (HPC) 90 % of control

CN(C)N1C(=O)C(C(=O)Nc2cccc3ccccc23)SC1=S (stereo unspecified)
inactive: dose: 0.75 mg/kg/injection, schedule: Q01DX005 (ip), vehicle: saline with Tween-80 96 % of control | dose: 1.5 mg/kg/injection, schedule: Q01DX005 (ip), vehicle: saline with Tween-80 88 % of control | dose: 3.0 mg/kg/injection, schedule: Q01DX005 (ip), vehicle: saline with Tween-80 91 % of control | [7] 99 % of control | [8] 103 % of control

NC1C(=O)OC(C(O)CO)C1O (stereo unspecified)
inactive: [1] 100 % of control | [2] 100 % of control | dose: 50.0 mg/kg/injection, schedule: Q01DX009 (ip), vehicle: water 104 % of control | dose: 100.0 mg/kg/injection, schedule: Q01DX009 (ip), vehicle: water 98 % of control | dose: 200.0 mg/kg/injection, schedule: Q01DX009 (ip), vehicle: water 97 % of control

CCOC(=O)c1ccc(NN=NCCOC)cc1
inactive: dose: 12.5 mg/kg/injection, schedule: Q01DX009 (ip), vehicle: distilled water + Tween-80 102 % of control | dose: 25.0 mg/kg/injection, schedule: Q01DX009 (ip), vehicle: distilled water + Tween-80 101 % of control and 105 % of control | dose: 50.0 mg/kg/injection, schedule: Q01DX009 (ip), vehicle: distilled water + Tween-80 122 % of control and 123 % of control

CCSSC12CCCN1C(=O)C(C)N(C)C2=O (stereo unspecified)
inactive: dose: 50.0 mg/kg/injection, schedule: Q01DX009 (ip), vehicle: saline 105 % of control | dose: 100.0 mg/kg/injection, schedule: Q01DX009 (ip), vehicle: saline 104 % of control | dose: 200.0 mg/kg/injection, schedule: Q01DX009 (ip), vehicle: saline 111 % of control

Cc1ccc([Se]CCBr)cc1
inactive: dose: 25.0 mg/kg/injection, schedule: Q01DX001 (ip), vehicle: saline 108 % of control | dose: 50.0 mg/kg/injection, schedule: Q01DX001 (ip), vehicle: saline 101 % of control | dose: 100.0 mg/kg/injection, schedule: Q01DX001 (ip), vehicle: saline 96 % of control

CC1CCC2C(C)C(=O)OC2C2(C)C(=O)C=CC12 (stereo unspecified)
inactive: [9] 103 % of control | [10] 113 % of control | [11] 110 % of control

Cc1cccc2c(=O)n(C(=O)c3ccccc3)c(N)nc12
inactive: dose: 25.0 mg/kg/injection, schedule: Q01DX001 (ip), vehicle: saline with Tween-80 88 % of control | dose: 50.0 mg/kg/injection, schedule: Q01DX001 (ip), vehicle: saline with Tween-80 90 % of control | dose: 100.0 mg/kg/injection, schedule: Q01DX001 (ip), vehicle: saline with Tween-80 89 % of control | dose: 200.0 mg/kg/injection, schedule: Q01DX001 (ip), vehicle: saline with Tween-80 93 % of control

CC1=C/C(=C\C(=O)N2CCCCC2)N=C(N[N+](=O)[O-])N1
inactive: dose: 50.0 mg/kg/injection, schedule: Q01DX009 (ip), vehicle: distilled water + Tween-80 + alcohol 111 % of control | dose: 100.0 mg/kg/injection, schedule: Q01DX009 (ip), vehicle: distilled water + Tween-80 + alcohol 115 % of control | dose: 200.0 mg/kg/injection, schedule: Q01DX009 (ip), vehicle: distilled water + Tween-80 + alcohol 105 % of control
